Results reported in ChEMBL document CHEMBL4340547, “Synthesis and SAR development of quinoline analogs as novel P2X7 receptor antagonists” (Bioorg Med Chem Lett, 2019).

Legend:
[1] = Unbound brain to plasma concentration ratio in mouse at 5 mg/kg, po; format: ADME, organism-based; settings: read-out: K(p,uu,brain)
[2] = Protein binding in mouse plasma assessed as unbound fraction at 5 mg/kg, po; format: ADME, organism-based
[3] = Oral bioavailability in mouse at 0.5 mg/kg; format: ADME, organism-based; settings: in vivo
[4] = Intrinsic clearance in rat liver microsomes; format: ADME, Microsome; settings: read-out: CLH
[5] = AUC in mouse brain at 5 mg/kg, po; format: ADME, organism-based
[6] = Protein binding in mouse brain assessed as unbound fraction at 5 mg/kg, po; format: ADME, organism-based
[7] = Terminal half life in mouse at 0.2 mg/kg, iv or 0.5 mg/kg, po; format: ADME, organism-based; settings: in vivo, read-out: beta t1/2 (converted)
P2X purinoceptor 7 [8] = biological target: T1, P2X purinoceptor 7 (Homo sapiens, UniProt Q99572); assay: Antagonist activity at P2X7R in LPS-stimulated human THP1 cells assessed as inhibition of BzATP-induced IL-1beta release preincubated for 30 mins followed by BzATP stimulation and measured after 30 mins by sandwich ELISA
T1 sequence (Q99572 whole entry): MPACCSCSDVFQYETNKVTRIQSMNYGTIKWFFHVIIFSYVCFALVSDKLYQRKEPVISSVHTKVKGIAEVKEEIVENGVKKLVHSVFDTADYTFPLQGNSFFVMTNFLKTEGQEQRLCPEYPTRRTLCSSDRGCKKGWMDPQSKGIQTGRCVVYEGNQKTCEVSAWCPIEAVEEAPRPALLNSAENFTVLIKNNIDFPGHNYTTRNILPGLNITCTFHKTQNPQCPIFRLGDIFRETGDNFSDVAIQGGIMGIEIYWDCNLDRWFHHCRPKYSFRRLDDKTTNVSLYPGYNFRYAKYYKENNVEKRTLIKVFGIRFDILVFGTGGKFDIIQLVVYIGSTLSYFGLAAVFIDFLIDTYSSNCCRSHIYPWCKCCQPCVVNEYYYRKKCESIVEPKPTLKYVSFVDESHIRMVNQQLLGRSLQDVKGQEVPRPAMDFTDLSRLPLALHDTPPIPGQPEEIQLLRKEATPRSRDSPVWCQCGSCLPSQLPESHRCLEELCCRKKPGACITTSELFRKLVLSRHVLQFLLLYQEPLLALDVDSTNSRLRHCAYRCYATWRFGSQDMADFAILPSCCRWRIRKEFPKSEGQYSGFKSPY

[9] = Protein binding in rat plasma; format: ADME, cell-free; settings: read-out: PPB
[10] = Protein binding in mouse plasma; format: ADME, cell-free; settings: read-out: PPB
[11] = Protein binding in rat plasma assessed as unbound fraction; format: ADME, cell-free
MDR [12] = assay: Apparent permeability across apical to basolateral side in MDCK cells expressing MDR; format: ADME, cell-based, Canis lupus familiaris; settings: dog, MDCK-MDR1
[13] = Dose normalized AUC in mouse at 0.5 mg/kg, po; format: ADME, organism-based; settings: in vivo
[14] = Dose normalized AUC in mouse at 0.2 mg/kg, iv; format: ADME, organism-based; settings: in vivo
[15] = Protein binding in human plasma; format: ADME, cell-free; settings: read-out: PPB
[16] = AUC in mouse plasma at 5 mg/kg, po; format: ADME, organism-based
[17] = Volume of distribution in mouse at 0.2 mg/kg, iv or 0.5 mg/kg, po; format: ADME, organism-based; settings: in vivo
[18] = Protein binding in mouse plasma assessed as unbound fraction; format: ADME, cell-free
P2X purinoceptor 7 [19] = biological target: T2, P2X purinoceptor 7 (Mus musculus, UniProt Q9Z1M0); assay: Antagonist activity at mouse P2X7 receptor assessed as inhibition of BzATP-induced YO PRO dye uptake preincubated for 20 mins followed by YO PRO dye and BzATP addition measured after 30 mins by fluorescence assay
T2 sequence (Q9Z1M0 whole entry): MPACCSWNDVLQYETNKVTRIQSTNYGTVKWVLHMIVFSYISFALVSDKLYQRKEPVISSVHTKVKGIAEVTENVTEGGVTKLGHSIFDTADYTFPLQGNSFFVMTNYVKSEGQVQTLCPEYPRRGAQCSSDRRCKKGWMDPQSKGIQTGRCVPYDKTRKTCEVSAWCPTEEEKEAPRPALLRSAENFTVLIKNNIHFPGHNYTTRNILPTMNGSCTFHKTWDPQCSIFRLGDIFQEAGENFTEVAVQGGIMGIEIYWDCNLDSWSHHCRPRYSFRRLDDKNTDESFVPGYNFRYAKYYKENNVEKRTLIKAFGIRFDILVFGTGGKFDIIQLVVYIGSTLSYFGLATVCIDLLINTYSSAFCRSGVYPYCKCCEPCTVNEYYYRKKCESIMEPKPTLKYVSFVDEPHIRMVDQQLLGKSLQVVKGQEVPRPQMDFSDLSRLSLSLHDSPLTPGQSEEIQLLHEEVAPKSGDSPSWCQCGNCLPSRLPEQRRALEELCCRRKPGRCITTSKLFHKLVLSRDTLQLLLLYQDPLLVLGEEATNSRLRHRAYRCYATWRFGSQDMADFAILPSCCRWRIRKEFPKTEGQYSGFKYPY

[20] = Intrinsic clearance in human liver microsomes; format: ADME, Microsome; settings: read-out: CLH
[21] = biological target: Voltage-gated inwardly rectifying potassium channel KCNH2 (Homo sapiens, UniProt Q12809); assay: Activity at human ERG
Voltage-gated inwardly rectifying potassium channel KCNH2, sequence (Q12809 whole entry): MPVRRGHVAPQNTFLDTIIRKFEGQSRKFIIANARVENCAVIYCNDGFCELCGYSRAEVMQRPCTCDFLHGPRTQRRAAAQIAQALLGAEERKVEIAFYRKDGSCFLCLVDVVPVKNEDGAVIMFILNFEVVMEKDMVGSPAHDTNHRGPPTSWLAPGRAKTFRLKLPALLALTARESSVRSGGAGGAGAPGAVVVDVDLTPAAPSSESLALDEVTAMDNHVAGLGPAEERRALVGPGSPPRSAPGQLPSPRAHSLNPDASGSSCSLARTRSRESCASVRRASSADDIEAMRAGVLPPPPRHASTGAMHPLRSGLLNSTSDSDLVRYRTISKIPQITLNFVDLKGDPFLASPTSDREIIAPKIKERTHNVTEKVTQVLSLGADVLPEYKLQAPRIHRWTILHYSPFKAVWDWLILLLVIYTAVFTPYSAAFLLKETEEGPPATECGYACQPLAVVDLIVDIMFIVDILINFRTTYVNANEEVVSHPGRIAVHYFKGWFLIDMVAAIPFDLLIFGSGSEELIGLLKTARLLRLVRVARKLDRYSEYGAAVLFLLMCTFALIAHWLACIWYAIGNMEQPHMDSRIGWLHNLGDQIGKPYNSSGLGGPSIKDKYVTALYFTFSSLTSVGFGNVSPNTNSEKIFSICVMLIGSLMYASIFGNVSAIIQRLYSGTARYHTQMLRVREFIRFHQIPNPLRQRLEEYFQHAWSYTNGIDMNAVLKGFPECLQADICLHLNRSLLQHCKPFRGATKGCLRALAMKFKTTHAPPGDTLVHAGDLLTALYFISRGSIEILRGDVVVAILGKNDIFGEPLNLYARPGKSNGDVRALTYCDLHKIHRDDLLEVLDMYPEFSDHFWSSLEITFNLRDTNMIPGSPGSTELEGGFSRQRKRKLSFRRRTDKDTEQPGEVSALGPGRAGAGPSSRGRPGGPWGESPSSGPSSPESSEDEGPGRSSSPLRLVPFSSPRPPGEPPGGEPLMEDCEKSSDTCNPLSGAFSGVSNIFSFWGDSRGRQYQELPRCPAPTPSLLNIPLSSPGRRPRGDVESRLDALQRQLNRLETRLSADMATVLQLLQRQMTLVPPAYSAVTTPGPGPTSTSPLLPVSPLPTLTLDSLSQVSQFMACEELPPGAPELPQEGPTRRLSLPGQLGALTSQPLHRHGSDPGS

[22] = Intrinsic clearance in mouse liver microsomes; format: ADME, Microsome; settings: read-out: CLH
[23] = Protein binding in human plasma assessed as unbound fraction; format: ADME, cell-free
P2X purinoceptor 7 [24] = biological target: T3, P2X purinoceptor 7 (Rattus norvegicus, UniProt Q64663); assay: Antagonist activity at rat P2X7 receptor assessed as inhibition of BzATP-induced YO PRO dye uptake preincubated for 20 mins followed by YO PRO dye and BzATP addition measured after 30 mins by fluorescence assay
T3 sequence (Q64663 whole entry): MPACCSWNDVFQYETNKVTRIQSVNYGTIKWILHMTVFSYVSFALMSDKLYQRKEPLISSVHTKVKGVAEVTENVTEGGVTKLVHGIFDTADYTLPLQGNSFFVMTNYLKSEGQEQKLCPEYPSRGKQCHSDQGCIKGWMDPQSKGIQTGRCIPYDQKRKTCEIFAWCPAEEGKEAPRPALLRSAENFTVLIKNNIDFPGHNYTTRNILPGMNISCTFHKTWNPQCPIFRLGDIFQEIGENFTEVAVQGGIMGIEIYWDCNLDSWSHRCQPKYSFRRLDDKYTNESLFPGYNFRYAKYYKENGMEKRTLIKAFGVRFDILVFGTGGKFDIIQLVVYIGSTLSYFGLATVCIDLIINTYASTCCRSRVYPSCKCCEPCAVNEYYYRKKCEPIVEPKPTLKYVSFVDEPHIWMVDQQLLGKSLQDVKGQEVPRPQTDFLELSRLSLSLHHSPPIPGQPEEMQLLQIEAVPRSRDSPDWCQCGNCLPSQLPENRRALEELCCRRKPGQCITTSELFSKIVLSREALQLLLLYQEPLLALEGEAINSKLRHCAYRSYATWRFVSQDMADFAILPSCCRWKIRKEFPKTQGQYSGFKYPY

P2X purinoceptor 7 [25] = biological target: T1, P2X purinoceptor 7; assay: Antagonist activity at human P2X7 receptor expressed in HEK293 cells assessed as inhibition of BzATP-induced YO PRO dye uptake preincubated for 20 mins followed by YO PRO dye and BzATP addition measured after 30 mins by fluorescence assay; format: cell-based
[26] = Clearance in mouse at 0.2 mg/kg, iv or 0.5 mg/kg, po; format: ADME, organism-based; settings: in vivo
MDR [27] = assay: Efflux ratio of apparent permeability in MDCK cells expressing MDR; format: ADME, cell-based, Canis lupus familiaris; settings: dog, MDCK-MDR1
[28] = Dose normalized Cmax in mouse at 0.2 mg/kg, iv; format: ADME, organism-based; settings: in vivo
[29] = Dose normalized Cmax in mouse at 0.5 mg/kg, po; format: ADME, organism-based; settings: in vivo

- Kp uu [1]: 0.13
- fraction unbound [2]: 0.079
- bioavailability [3]: 32%
- microsomal CLint [4]: 23 µL/min/mg
- AUC [5]: 12.6 ng·h/mL
- fraction unbound [6]: 0.11
- half-life [7]: 25.8 min
- IC50 (P2X purinoceptor 7 [8]): 0.0267 µM
- fraction unbound [9]: 0.03 to 0.1
- fraction unbound [10]: 0.03 to 0.1
- fraction unbound [11]: 0.089
- Papp A→B (MDR [12]): 8.9 to 9 ×10⁻⁶ cm/s
- AUC/dose [13]: 143 ng·h/mL
- AUC/dose [14]: 451 ng·h/mL
- fraction unbound [15]: 0.03 to 0.1
- AUC [16]: 136 ng·h/mL
- Vd [17]: 1.19 L/kg
- fraction unbound [18]: 0.079
- IC50 (P2X purinoceptor 7 [19]): 6.73 µM
- microsomal CLint [20]: 20 µL/min/mg
- microsomal CLint [22]: 34 µL/min/mg
- fraction unbound [23]: 0.098
- IC50 (P2X purinoceptor 7 [24]): 9.4 µM
- IC50 (P2X purinoceptor 7 [25]): 0.018 µM
- clearance [26]: 36.8 mL/min/kg
- efflux ratio (MDR [27]): 6.3
- Cmax/dose [28]: 738 ng/mL
- Cmax/dose [29]: 160 ng/mL
Structure (SMILES): O=C(NCC1(O)CCCC(F)(F)C1)c1c(Cl)ccc2nc(N3CC[C@H](F)C3)ccc12 (some centres undefined)
- Activity [21]: > 30 µM
